Laboratory results as given in PMC10609013, “Solubility and Thermodynamic Analysis of Isotretinoin in Different (DMSO + Water) Mixtures” (Molecules, 2023).
“And” between values parts separate entries of the source, which are not always exact repeats. Identical values can stand only once.

Columns and labels:
[1] = Shake flask solubility of ITN in {DMSO (1) + H2O (2)} mixes, HPLC; type: physicochemical; conditions: 101.1 kPa
Protocol: A series of {DMSO (1) + H2O (2)} solutions, with DMSO mass percentages ranging from 0.10 to 0.90, was examined. Three replicates of each {DMSO (1) + H2O (2)} combination were taken. ITN’s mole fraction solubility versus mass fraction of DMSO (m = 0.0–1.0) and neat DMSO and H2O was measured using a shake flask approach at 298.2–318.2 K and 101.1 kPa. In essence, the known amounts of each {DMSO (1) + H2O (2)} combination and neat DMSO and H2O were combined with extra ITN crystals in triplicate. The equilibrium was achieved by saturating the resultant mixes in a WiseBath® WSB shaking water bath (Model WSB-18/30/-45, Daihan Scientific Co. Ltd., Seoul, Korea) at a shaking speed of 100 rpm for 72 h. In order to evaluate the equilibrium time, the preliminary experiments were performed at different time intervals. […] The saturated solutions were again removed from the shaker after they had reached equilibrium and centrifuged for 30 min at 5000 rpm. A previously established environmentally friendly HPLC method was used to assess the ITN content after the supernatants were isolated and diluted (as required). The identification of ITN was carried out via a Nucleodur (dimensions: 150 mm × 4.6 mm and particle size: 5 μm) reversed-phase C18 analytical column at 298.2 K. The environmentally friendly mobile used was a binary mixture of ethyl acetate and ethanol (50:50% v v^−1). The mobile phase was delivered with a flow speed of 1 mL min^−1. The ITN measurements were performed at a wavelength of 354 nm. The sample volume was 20 μL, which was injected using a Waters autosampler. The Analytical GREEnness (AGREE) score was determined to evaluate the eco-friendliness nature of the HPLC method. The AGREE score was predicted to be 0.76 for the present HPLC method, indicating the eco-friendly nature of the HPLC method. ITN mole fraction solubilities (xe) were calculated using their standard formulae described in our previous work.

[2] = Activity coefficients (γi) of ITN, Equation (4); type: physicochemical
Source text: Finally, the x^idl values for ITN were derived from Equation (2). Equation (4) was used to derive the γi values for ITN in numerous {DMSO (1) + H2O (2)} mixes including neat DMSO and H2O [56, 58]:(4) γi=x^idl/xe

[3] = parameters: method as in PMID 36431759; conditions: cited from earlier work
[4] = Enthalpy-entropy compensation analysis; type: physicochemical; conditions: all {DMSO (1) + H2O (2)} mixes, neat DMSO and H2O, Thm = 308 K
Source text: An enthalpy–entropy compensation analysis was used, as previously described, to evaluate the solvation behavior of ITN (3) in numerous mixes of {DMSO (1) + H2O (2)}. Weighted curves of ΔsolH° vs. ΔsolG° were generated at Thm = 308 K for this experiment.

[5] = DMSO mass fraction m = 0.0, T = 298.2 K
[6] = DMSO mass fraction m = 0.0, T = 303.2 K
[7] = DMSO mass fraction m = 0.0, T = 308.2 K
[8] = DMSO mass fraction m = 0.0, T = 313.2 K
[9] = DMSO mass fraction m = 0.0, T = 318.2 K
[10] = DMSO mass fraction m = 0.1, T = 298.2 K
[11] = DMSO mass fraction m = 0.1, T = 303.2 K
[12] = DMSO mass fraction m = 0.1, T = 308.2 K
[13] = DMSO mass fraction m = 0.1, T = 313.2 K
[14] = DMSO mass fraction m = 0.1, T = 318.2 K
[15] = DMSO mass fraction m = 0.2, T = 298.2 K
[16] = DMSO mass fraction m = 0.2, T = 303.2 K
[17] = DMSO mass fraction m = 0.2, T = 308.2 K
[18] = DMSO mass fraction m = 0.2, T = 313.2 K
[19] = DMSO mass fraction m = 0.2, T = 318.2 K
[20] = DMSO mass fraction m = 0.3, T = 298.2 K
[21] = DMSO mass fraction m = 0.3, T = 303.2 K
[22] = DMSO mass fraction m = 0.3, T = 308.2 K
[23] = DMSO mass fraction m = 0.3, T = 313.2 K
[24] = DMSO mass fraction m = 0.3, T = 318.2 K
[25] = DMSO mass fraction m = 0.4, T = 298.2 K
[26] = DMSO mass fraction m = 0.4, T = 303.2 K
[27] = DMSO mass fraction m = 0.4, T = 308.2 K
[28] = DMSO mass fraction m = 0.4, T = 313.2 K
[29] = DMSO mass fraction m = 0.4, T = 318.2 K
[30] = DMSO mass fraction m = 0.5, T = 298.2 K
[31] = DMSO mass fraction m = 0.5, T = 303.2 K
[32] = DMSO mass fraction m = 0.5, T = 308.2 K
[33] = DMSO mass fraction m = 0.5, T = 313.2 K
[34] = DMSO mass fraction m = 0.5, T = 318.2 K
[35] = DMSO mass fraction m = 0.6, T = 298.2 K
[36] = DMSO mass fraction m = 0.6, T = 303.2 K
[37] = DMSO mass fraction m = 0.6, T = 308.2 K
[38] = DMSO mass fraction m = 0.6, T = 313.2 K
[39] = DMSO mass fraction m = 0.6, T = 318.2 K
[40] = DMSO mass fraction m = 0.7, T = 298.2 K
[41] = DMSO mass fraction m = 0.7, T = 303.2 K
[42] = DMSO mass fraction m = 0.7, T = 308.2 K
[43] = DMSO mass fraction m = 0.7, T = 313.2 K
[44] = DMSO mass fraction m = 0.7, T = 318.2 K
[45] = DMSO mass fraction m = 0.8, T = 298.2 K
[46] = DMSO mass fraction m = 0.8, T = 303.2 K
[47] = DMSO mass fraction m = 0.8, T = 308.2 K
[48] = DMSO mass fraction m = 0.8, T = 313.2 K
[49] = DMSO mass fraction m = 0.8, T = 318.2 K
[50] = DMSO mass fraction m = 0.9, T = 298.2 K
[51] = DMSO mass fraction m = 0.9, T = 303.2 K
[52] = DMSO mass fraction m = 0.9, T = 308.2 K
[53] = DMSO mass fraction m = 0.9, T = 313.2 K
[54] = DMSO mass fraction m = 0.9, T = 318.2 K
[55] = DMSO mass fraction m = 1.0, T = 298.2 K
[56] = DMSO mass fraction m = 1.0, T = 303.2 K
[57] = DMSO mass fraction m = 1.0, T = 308.2 K
[58] = DMSO mass fraction m = 1.0, T = 313.2 K
[59] = DMSO mass fraction m = 1.0, T = 318.2 K

xe experimental solubility [1, 5]: 3.10 (0.07) × 10^−7 mole fraction
xe experimental solubility [1, 6]: 4.60 (0.15) × 10^−7 mole fraction
xe experimental solubility [1, 7]: 7.50 (0.18) × 10^−7 mole fraction
xe experimental solubility [1, 8]: 1.10 (0.02) × 10^−6 mole fraction
xe experimental solubility [1, 9]: 1.50 (0.03) × 10^−6 mole fraction
xe experimental solubility [1, 10]: 1.12 (0.02) × 10^−6 mole fraction
xe experimental solubility [1, 11]: 1.59 (0.03) × 10^−6 mole fraction
xe experimental solubility [1, 12]: 2.45 (0.05) × 10^−6 mole fraction
xe experimental solubility [1, 13]: 3.47 (0.06) × 10^−6 mole fraction
xe experimental solubility [1, 14]: 4.61 (0.11) × 10^−6 mole fraction
xe experimental solubility [1, 15]: 3.83 (0.08) × 10^−6 mole fraction
xe experimental solubility [1, 16]: 5.28 (0.17) × 10^−6 mole fraction
xe experimental solubility [1, 17]: 7.87 (0.21) × 10^−6 mole fraction
xe experimental solubility [1, 18]: 1.10 (0.01) × 10^−5 mole fraction
xe experimental solubility [1, 19]: 1.42 (0.02) × 10^−5 mole fraction
xe experimental solubility [1, 20]: 1.36 (0.01) × 10^−5 mole fraction
xe experimental solubility [1, 21]: 1.82 (0.03) × 10^−5 mole fraction
xe experimental solubility [1, 22]: 2.57 (0.04) × 10^−5 mole fraction
xe experimental solubility [1, 23]: 3.43 (0.06) × 10^−5 mole fraction
xe experimental solubility [1, 24]: 4.29 (0.07) × 10^−5 mole fraction
xe experimental solubility [1, 25]: 4.68 (0.07) × 10^−5 mole fraction
xe experimental solubility [1, 26]: 6.06 (0.08) × 10^−5 mole fraction
xe experimental solubility [1, 27]: 8.23 (0.10) × 10^−5 mole fraction
xe experimental solubility [1, 28]: 1.08 (0.01) × 10^−4 mole fraction
xe experimental solubility [1, 29]: 1.32 (0.02) × 10^−4 mole fraction
xe experimental solubility [1, 30]: 1.65 (0.04) × 10^−4 mole fraction
xe experimental solubility [1, 31]: 2.05 (0.05) × 10^−4 mole fraction
xe experimental solubility [1, 32]: 2.69 (0.06) × 10^−4 mole fraction
xe experimental solubility [1, 33]: 3.31 (0.07) × 10^−4 mole fraction
xe experimental solubility [1, 34]: 3.96 (0.08) × 10^−4 mole fraction
xe experimental solubility [1, 35]: 5.70 (0.10) × 10^−4 mole fraction
xe experimental solubility [1, 36]: 6.88 (0.12) × 10^−4 mole fraction
xe experimental solubility [1, 37]: 8.57 (0.17) × 10^−4 mole fraction
xe experimental solubility [1, 38]: 1.08 (0.01) × 10^−3 mole fraction
xe experimental solubility [1, 39]: 1.22 (0.02) × 10^−3 mole fraction
xe experimental solubility [1, 40]: 2.02 (0.03) × 10^−3 mole fraction
xe experimental solubility [1, 41]: 2.33 (0.05) × 10^−3 mole fraction
xe experimental solubility [1, 42]: 2.79 (0.06) × 10^−3 mole fraction
xe experimental solubility [1, 43]: 3.24 (0.07) × 10^−3 mole fraction
xe experimental solubility [1, 44]: 3.66 (0.08) × 10^−3 mole fraction
xe experimental solubility [1, 45]: 6.97 (0.10) × 10^−3 mole fraction
xe experimental solubility [1, 46]: 7.81 (0.12) × 10^−3 mole fraction
xe experimental solubility [1, 47]: 8.96 (0.20) × 10^−3 mole fraction
xe experimental solubility [1, 48]: 1.02 (0.01) × 10^−2 mole fraction
xe experimental solubility [1, 49]: 1.15 (0.01) × 10^−2 mole fraction
xe experimental solubility [1, 50]: 2.44 (0.02) × 10^−2 mole fraction
xe experimental solubility [1, 51]: 2.66 (0.03) × 10^−2 mole fraction
xe experimental solubility [1, 52]: 2.86 (0.03) × 10^−2 mole fraction
xe experimental solubility [1, 53]: 3.19 (0.04) × 10^−2 mole fraction
xe experimental solubility [1, 54]: 3.39 (0.05) × 10^−2 mole fraction
xe experimental solubility [1, 55]: 8.47 (0.10) × 10^−2 mole fraction
xe experimental solubility [1, 56]: 8.88 (0.11) × 10^−2 mole fraction
xe experimental solubility [1, 57]: 9.31 (0.12) × 10^−2 mole fraction
xe experimental solubility [1, 58]: 9.80 (0.13) × 10^−2 mole fraction
γi activity coefficient [2, 5]: 1,366,467
γi activity coefficient [2, 6]: 972,627.0
γi activity coefficient [2, 7]: 611,320.0
γi activity coefficient [2, 8]: 441,076.0
γi activity coefficient [2, 9]: 326,128.0
γi activity coefficient [2, 10]: 384,000.0
γi activity coefficient [2, 11]: 278,000.0
γi activity coefficient [2, 12]: 187,000.0
γi activity coefficient [2, 13]: 136,000.0
γi activity coefficient [2, 14]: 106,000.0
γi activity coefficient [2, 15]: 111,979.0
γi activity coefficient [2, 16]: 83,952.80
γi activity coefficient [2, 17]: 58,249.00
γi activity coefficient [2, 18]: 43,099.10
γi activity coefficient [2, 19]: 34,943.20
γi activity coefficient [2, 20]: 31,441.80
γi activity coefficient [2, 21]: 24,298.30
γi activity coefficient [2, 22]: 17,811.50
γi activity coefficient [2, 23]: 13,802.30
γi activity coefficient [2, 24]: 11,402.70
γi activity coefficient [2, 25]: 9161.740
γi activity coefficient [2, 26]: 7310.360
γi activity coefficient [2, 27]: 5568.540
γi activity coefficient [2, 28]: 4372.740
γi activity coefficient [2, 29]: 3713.1570
γi activity coefficient [2, 30]: 2602.340
γi activity coefficient [2, 31]: 2166.250
γi activity coefficient [2, 32]: 1703.980
γi activity coefficient [2, 33]: 1429.250
γi activity coefficient [2, 34]: 1233.060
γi activity coefficient [2, 35]: 751.8650
γi activity coefficient [2, 36]: 644.3650
γi activity coefficient [2, 37]: 534.7140
γi activity coefficient [2, 38]: 438.6560
γi activity coefficient [2, 39]: 399.5110
γi activity coefficient [2, 40]: 211.8050
γi activity coefficient [2, 41]: 189.9250
γi activity coefficient [2, 42]: 164.4500
γi activity coefficient [2, 43]: 146.1890
γi activity coefficient [2, 44]: 133.4190
γi activity coefficient [2, 45]: 61.49
γi activity coefficient [2, 46]: 56.72
γi activity coefficient [2, 47]: 51.11
γi activity coefficient [2, 48]: 46.46
γi activity coefficient [2, 49]: 42.45
γi activity coefficient [2, 50]: 17.6
γi activity coefficient [2, 51]: 16.68
γi activity coefficient [2, 52]: 16.02
γi activity coefficient [2, 53]: 14.84
γi activity coefficient [2, 54]: 14.42
γi activity coefficient [2, 55]: 5.057
γi activity coefficient [2, 56]: 4.988
γi activity coefficient [2, 57]: 4.919
γi activity coefficient [2, 58]: 4.829
γi activity coefficient [2, 59]: 4.791
solvation driven mechanism [4]: enthalpy-driven
Compound: CC1=C(/C=C/C(C)=C/C=C/C(C)=C\C(=O)O)C(C)(C)CCC1 [ITN, isotretinoin]
xe experimental solubility [1, 59]: 1.02 × 10^−1 mole fraction and 1.02 (0.01) × 10^−1 mole fraction
total HSP (δt) [3]: 19.30 MPa^1/2
